Legend:
[1] = target: T1, KRas-mediated phosphorylation of ERK in MKN1 cells (Homo sapiens, UniProt P01116); test: Inhibition of KRas-mediated phosphorylation of ERK (HTRF), MKN1 cells; format: cell-based; conditions: MKN1 cells (KRas WT); HTRF pERK; 3 h incubation
T1 construct: pERK HTRF read-out
Protocol: Inhibition of KRas Phosphorylation of ERK (HTRF) by Exemplary Compounds of Formula (Ia) or (Ib)
Cisbio HTRF Advanced pERK Assay Catalog #64AERPEH • Cells: MKN1, PSN1 • Procedure: • 1. Day 1: Seed 6,000 cells/well −25 μl/well in 384-well white solid bottom plate; RPM1_10% FBS. Incubate overnight at 37 °C/5% CO2. • 2.

[2] = target: T2, KRas-mediated phosphorylation of ERK in H358 cells (Homo sapiens, UniProt P01116, G12C); test: Inhibition of KRas-mediated phosphorylation of ERK (HTRF), H358 cells; format: cell-based; conditions: HTRF pERK, 3 h incubation
T2 construct: pERK HTRF read-out
T2 sequence (P01116 1-188 isoform P01116-2 G12C): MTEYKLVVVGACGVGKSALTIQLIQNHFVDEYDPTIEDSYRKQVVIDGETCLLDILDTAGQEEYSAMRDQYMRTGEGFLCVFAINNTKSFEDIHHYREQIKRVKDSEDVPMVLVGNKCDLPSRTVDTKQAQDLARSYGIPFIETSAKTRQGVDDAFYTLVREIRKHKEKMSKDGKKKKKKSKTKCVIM

KRas WT = target: T3, KRas WT (Homo sapiens, UniProt P01116); test: KRas binding assay, TR-FRET displacement of Cy5 labelled tracer; conditions: 60-minute incubation at room temperature, 1% DMSO, pH 7.5
T3 construct: Biotinylated KRas (corresponding to amino acids 1-169, produced at Accelegan Inc.); biotin (biotinylated); purchased Accelegan Inc
T3 sequence (P01116 1-169 isoform P01116-2): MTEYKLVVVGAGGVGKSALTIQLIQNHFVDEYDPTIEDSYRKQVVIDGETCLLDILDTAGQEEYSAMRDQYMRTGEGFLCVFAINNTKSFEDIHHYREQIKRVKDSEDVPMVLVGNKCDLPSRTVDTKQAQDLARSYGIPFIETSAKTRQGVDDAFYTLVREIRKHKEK
Summary of the method: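 Biotinylated KRas (residues 1-169) was incubated with tracer, terbium-streptavidin and compound at 1% DMSO final in 50 mM HEPES pH 7.5 containing 5 mM MgCl2, 0.005% Tween-20 and 1 mM DTT. The plate was read after 60 min at room temperature, and percent-of-control data were fit to a 4-parameter IC50 equation.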

KRas G12C = target: T4, KRas G12C (Homo sapiens, UniProt P01116, G12C); test: as above; conditions: 60-minute incubation at room temperature, 1% DMSO, pH 7.5
T4 construct: Biotinylated KRas (corresponding to amino acids 1-169, produced at Accelegan Inc.); biotin (biotinylated); purchased Accelegan Inc
T4 sequence (P01116 1-169 isoform P01116-2 G12C): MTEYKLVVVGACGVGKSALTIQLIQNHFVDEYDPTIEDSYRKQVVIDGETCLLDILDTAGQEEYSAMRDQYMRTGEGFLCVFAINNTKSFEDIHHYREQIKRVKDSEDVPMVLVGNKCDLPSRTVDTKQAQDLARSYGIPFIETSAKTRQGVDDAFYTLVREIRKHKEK
Summary of the method: (§1)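 KRas aa 1-169, biotinylated; Tb-streptavidin donor; 1% DMSO final. Buffer: HEPES 50 mM (pH 7.5), MgCl2 5 mM, DTT 1 mM, Tween-20 0.005%. 60 min, RT. IC50 from 4-parameter fit of POC.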

KRas G12S = target: T5, KRas G12S (Homo sapiens, UniProt P01116, G12S); test: as above; conditions: 60-minute incubation at room temperature, 1% DMSO, pH 7.5
T5 construct: Biotinylated KRas (corresponding to amino acids 1-169, produced at Accelegan Inc.); biotin (biotinylated); purchased Accelegan Inc
T5 sequence (P01116 1-169 isoform P01116-2 G12S): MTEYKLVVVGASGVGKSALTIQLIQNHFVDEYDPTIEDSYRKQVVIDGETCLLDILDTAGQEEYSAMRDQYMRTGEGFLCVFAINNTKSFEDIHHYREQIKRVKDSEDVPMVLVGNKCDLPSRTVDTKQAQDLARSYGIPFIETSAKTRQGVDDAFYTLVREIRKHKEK
Summary of the method: as §1

[3] = target: T6, KRas-mediated phosphorylation of ERK in A549 cells (Homo sapiens, UniProt P01116, G12S); test: Inhibition of KRas-mediated phosphorylation of ERK (HTRF), A549 cells; format: cell-based; conditions: HTRF pERK, 3 h incubation
T6 construct: pERK HTRF read-out
T6 sequence (P01116 1-188 isoform P01116-2 G12S): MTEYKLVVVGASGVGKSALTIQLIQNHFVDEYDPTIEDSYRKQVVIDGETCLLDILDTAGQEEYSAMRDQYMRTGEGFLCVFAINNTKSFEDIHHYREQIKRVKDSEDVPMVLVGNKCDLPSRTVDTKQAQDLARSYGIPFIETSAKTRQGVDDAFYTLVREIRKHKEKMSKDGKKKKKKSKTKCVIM

T1 sequence (P01116 1-188 isoform P01116-2): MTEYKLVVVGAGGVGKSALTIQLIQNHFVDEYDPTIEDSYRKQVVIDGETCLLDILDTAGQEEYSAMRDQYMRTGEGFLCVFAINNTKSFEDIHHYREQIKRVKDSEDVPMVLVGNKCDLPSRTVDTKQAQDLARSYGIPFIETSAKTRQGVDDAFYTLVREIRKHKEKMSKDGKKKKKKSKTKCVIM

Compound | IC50 [1] [nM] | IC50 [2] [nM] | IC50 (KRas WT) [nM] | IC50 (KRas G12C) [nM] | IC50 (KRas G12S) [nM] | IC50 [3] [nM]
CCc1c(F)ccc2cc(O)cc(-c3ncc4c(N5CCCN(C(=O)n6ccc(C)n6)CC5)nc(OC[C@@]56CCCN5C[C@H](F)C6)nc4c3F)c12 [Example 69, (4-(7-(8-ethyl-7-fluoro-3-hydroxynaphthalen-1-yl)-8-fluoro-2-(((2R,7aS)-2-fluorotetrahydro-1H-pyrrolizin-7a(5H)-yl)methoxy)pyrido[4,3-d]pyrimidin-4-yl)-1,4-diazepan-1-yl)(3-methyl-1H-pyrazol-1-yl)methanone] | 31 | 1120 | 6 | 79 | 124 | 4810
CCc1c(F)ccc2cc(O)cc(-c3ncc4c(N5CCC(C(=O)n6ccc(C)n6)CC5)nc(OC[C@@]56CCCN5C/C(=C\F)C6)nc4c3F)c12 [Example 70, (S,Z)-(1-(7-(8-ethyl-7-fluoro-3-hydroxynaphthalen-1-yl)-8-fluoro-2-((2-(fluoromethylene)tetrahydro-1H-pyrrolizin-7a(5H)-yl)methoxy)pyrido[4,3-d]pyrimidin-4-yl)piperidin-4-yl)(3-methyl-1H-pyrazol-1-yl)methanone] | 5100 | 7290 | 27 | 31 | 17 | 85
CCc1c(F)ccc2cc(O)cc(-c3ncc4c(N5CC[C@@H](C(=O)n6ccc(C)n6)[C@H](C)C5)nc(OC[C@@]56CCCN5C[C@H](F)C6)nc4c3F)c12 [Example 71, ((3S,4R)-1-(7-(8-ethyl-7-fluoro-3-hydroxynaphthalen-1-yl)-8-fluoro-2-(((2R,7aS)-2-fluorotetrahydro-1H-pyrrolizin-7a(5H)-yl)methoxy)pyrido[4,3-d]pyrimidin-4-yl)-3-methylpiperidin-4-yl)(3-methyl-1H-pyrazol-1-yl)methanone] | 8470 | 930 | 2090 | 1690 | 2500 | 2030
CCc1c(F)ccc2cc(O)cc(-c3ncc4c(N5CCC(C(=O)n6cc(C(C)(C)C)cn6)CC5)nc(OC[C@@]56CCCN5C[C@H](F)C6)nc4c3F)c12 [Example 72, (4-(tert-butyl)-1H-pyrazol-1-yl)(1-(7-(8-ethyl-7-fluoro-3-hydroxynaphthalen-1-yl)-8-fluoro-2-(((2R,7aS)-2-fluorotetrahydro-1H-pyrrolizin-7a(5H)-yl)methoxy)pyrido[4,3-d]pyrimidin-4-yl)piperidin-4-yl)methanone] | 3330 | 7290 | 572 | 408 | 274 | 748
CCc1c(F)ccc2cc(O)cc(-c3ncc4c(N5CCC(C(=O)n6nc(C)c(C)c6C)CC5)nc(OC[C@@]56CCCN5C[C@H](F)C6)nc4c3F)c12 [Example 73, (1-(7-(8-ethyl-7-fluoro-3-hydroxynaphthalen-1-yl)-8-fluoro-2-(((2R,7aS)-2-fluorotetrahydro-1H-pyrrolizin-7a(5H)-yl)methoxy)pyrido[4,3-d]pyrimidin-4-yl)piperidin-4-yl)(3,4,5-trimethyl-1H-pyrazol-1-yl)methanone] | 5570 | 4500 | 1080 | 888 | 2960 | 8480
CCc1c(F)ccc2cc(O)cc(-c3ncc4c(N5CCC(C(=O)n6nc(C)cc6C)CC5)nc(OC[C@@]56CCCN5C[C@H](F)C6)nc4c3F)c12 [Example 74, (3,5-dimethyl-1H-pyrazol-1-yl)(1-(7-(8-ethyl-7-fluoro-3-hydroxynaphthalen-1-yl)-8-fluoro-2-(((2R,7aS)-2-fluorotetrahydro-1H-pyrrolizin-7a(5H)-yl)methoxy)pyrido[4,3-d]pyrimidin-4-yl)piperidin-4-yl)methanone] | 3330 | 2290 | 798 | 578 | 885 | 464
CCc1c(F)ccc2cc(O)cc(-c3ncc4c(N5CCC(C(=O)n6ccc(C(C)(C)C)n6)CC5)nc(OC[C@@]56CCCN5C[C@H](F)C6)nc4c3F)c12 [Example 75, (3-(tert-butyl)-1H-pyrazol-1-yl)(1-(7-(8-ethyl-7-fluoro-3-hydroxynaphthalen-1-yl)-8-fluoro-2-(((2R,7aS)-2-fluorotetrahydro-1H-pyrrolizin-7a(5H)-yl)methoxy)pyrido[4,3-d]pyrimidin-4-yl)piperidin-4-yl)methanone] | 1390 | 3110 | 378 | 234 | 346 | 312
CCc1c(F)ccc2cc(O)cc(-c3ncc4c(N5CCC(C(=O)n6ccc(C(C)C)n6)CC5)nc(OC[C@@]56CCCN5C[C@H](F)C6)nc4c3F)c12 [Example 76, (1-(7-(8-ethyl-7-fluoro-3-hydroxynaphthalen-1-yl)-8-fluoro-2-(((2R,7aS)-2-fluorotetrahydro-1H-pyrrolizin-7a(5H)-yl)methoxy)pyrido[4,3-d]pyrimidin-4-yl)piperidin-4-yl)(3-isopropyl-1H-pyrazol-1-yl)methanone] | 2060 | 4720 | 166 | 124 | 150 | 223
CCc1c(F)ccc2cc(O)cc(-c3ncc4c(N5CCOCC(C(=O)n6ccc(C)n6)C5)nc(OC[C@@]56CCCN5C[C@H](F)C6)nc4c3F)c12 (stereo partly drawn) [Example 77, (4-(7-(8-ethyl-7-fluoro-3-hydroxynaphthalen-1-yl)-8-fluoro-2-(((2R,7aS)-2-fluorotetrahydro-1H-pyrrolizin-7a(5H)-yl)methoxy)pyrido[4,3-d]pyrimidin-4-yl)-1,4-oxazepan-6-yl)(3-methyl-1H-pyrazol-1-yl)methanone] | 4560 | 1360 | 161 | 159 | 87 | > 10000
CCc1c(F)ccc2cc(O)cc(-c3ncc4c(N5CC[C@@H](C(=O)n6ccc(C)n6)[C@@H](C)C5)nc(OC[C@@]56CCCN5C[C@H](F)C6)nc4c3F)c12 [Example 79, ((3R,4R)-1-(7-(8-ethyl-7-fluoro-3-hydroxynaphthalen-1-yl)-8-fluoro-2-(((2R,7aS)-2-fluorotetrahydro-1H-pyrrolizin-7a(5H)-yl)methoxy)pyrido[4,3-d]pyrimidin-4-yl)-3-methylpiperidin-4-yl)(3-methyl-1H-pyrazol-1-yl)methanone] | 1450 | 23 | 246 | 26 | 594 | 785
CCc1c(F)ccc2cc(O)cc(-c3ncc4c(N5CCC(C(=O)n6cc(C(C)C)cn6)CC5)nc(OC[C@@]56CCCN5C[C@H](F)C6)nc4c3F)c12 [Example 80, (1-(7-(8-ethyl-7-fluoro-3-hydroxynaphthalen-1-yl)-8-fluoro-2-(((2R,7aS)-2-fluorotetrahydro-1H-pyrrolizin-7a(5H)-yl)methoxy)pyrido[4,3-d]pyrimidin-4-yl)piperidin-4-yl)(4-isopropyl-1H-pyrazol-1-yl)methanone] | 3380 | 9700 | 432 | 307 | 197 | 431
CCc1c(F)ccc2cc(O)cc(-c3ncc4c(N5C[C@@H](C)N(C(=O)n6ccc(C)n6)[C@@H](C)C5)nc(OC[C@@]56CCCN5C[C@H](F)C6)nc4c3F)c12 [Example 81, ((2S,6R)-4-(7-(8-ethyl-7-fluoro-3-hydroxynaphthalen-1-yl)-8-fluoro-2-(((2R,7aS)-2-fluorotetrahydro-1H-pyrrolizin-7a(5H)-yl)methoxy)pyrido[4,3-d]pyrimidin-4-yl)-2,6-dimethylpiperazin-1-yl)(3-methyl-1H-pyrazol-1-yl)methanone] | 192 | 2160 | 32 | 165 | 93 | 3770
CCc1c(F)ccc2cc(O)cc(-c3ncc4c(N5CCN(C(=O)n6ccc(C)n6)C(C)C5)nc(OC[C@@]56CCCN5C[C@H](F)C6)nc4c3F)c12 (stereo partly drawn) [Example 82, (4-(7-(8-ethyl-7-fluoro-3-hydroxynaphthalen-1-yl)-8-fluoro-2-(((2R,7aS)-2-fluorotetrahydro-1H-pyrrolizin-7a(5H)-yl)methoxy)pyrido[4,3-d]pyrimidin-4-yl)-2-methylpiperazin-1-yl)(3-methyl-1H-pyrazol-1-yl)methanone] | 179 | 499 | 23 | 34 | 28 | 3410
CCc1c(F)ccc2cc(O)cc(-c3ncc4c(N5CCC(C)(C(=O)n6ccc(C)n6)CC5)nc(OC[C@@]56CCCN5C[C@H](F)C6)nc4c3F)c12 [Example 83, (1-(7-(8-ethyl-7-fluoro-3-hydroxynaphthalen-1-yl)-8-fluoro-2-(((2R,7aS)-2-fluorotetrahydro-1H-pyrrolizin-7a(5H)-yl)methoxy)pyrido[4,3-d]pyrimidin-4-yl)-4-methylpiperidin-4-yl)(3-methyl-1H-pyrazol-1-yl)methanone] | 2990 | 1410 | 790 | 107 | 402 | 1170
